Structures can show the parent of a compound that is named as a salt.
Legend:
[1] = Oral bioavailability in dogs; conditions: dog, in vivo, read-out: Oral F %
[2] = test system: moderate-to-severe COPD patients; assay: Phase Ib placebo-controlled test of i.v. MN-221 in moderate-to-severe COPD patients; format: in vivo, human; conditions: for FEV1 increase as compared to baseline (average): end of infusion
Protocol: This example provides certain preferred oral dosages for treating male COPD patients according to this invention. A randomized, double-blind, placebo-controlled phase Ib clinical test evaluated MN-221 in 48 moderate-to-severe COPD patients who received a 1 hour intravenous (i.v.) infusion of MN-221 at three different escalating dose levels (300 micrograms, 600 micrograms, or 1200 micrograms) or placebo.
(a) diagnosed (e.g., by clinical history, 20 pack/year smoking history, physical examination [PE], and spirometry) COPD treated for ≧3 months prior to Screen Visit 1; (b) ≧30% FEV1<80% and FEV1/FVC (forced vital capacity) ratio<0.7 at Screen Visits 1 and 2; and (c) increase in FEV1 of 12%, over the pre-albuterol FEV1 within 30 min after inhalation of up to 4 puffs of albuterol delivered by Metered Dose Inhaler (MDI) with spacer at the Screen Visit 1.
48 subjects with stable, moderate-to-severe chronic obstructive pulmonary disease were administered MN-221. The following does were administered. 10 μg/min for 15 min+3.3 μg/min for 45 min (1-hr infusion total dose 300 μg) or placebo; 20 μg/min for 15 min+6.67 μg/min for 45 min (1-hr infusion total dose 600 μg) or placebo; and 40 μg/min for 15 min+13.3 μg/min for 45 min (1-hr infusion total dose 1,200 μg) or placebo.

[3] = Phase I open-label single-dose crossover oral bioavailability / PK test of bedoradrine sulfate in healthy volunteers; format: in vivo, human; conditions: for clearance: CL; for Vd: Vss; for half-life: t½
Protocol: The test was an open-label, randomized, crossover, single dose test of 600 μg (0.6 mg) bedoradrine sulfate in liquid form administered orally and of 300 μg (0.3 mg) bedoradrine sulfate administered by i.v. infusion. All subjects were in an overnight fasting state. Four male and four female subjects were enrolled in the test and received two administration sequences: Day 1: n=4 received 15-minute intravenous infusion of bedoradrine sulfate (300 μg), the other 4 received an oral administration of bedoradrine sulfate (600 μg); Day 8: the 4 subjects administered i.v. MN-221 on Day 1, received oral bedoradrine sulfate and the 4 subjects administered orally with MN-221 on Day 1, receive i.v. bedoradrine sulfate. Subjects were domiciled in the clinical research unit (CRU) for two nights, beginning on Day minus one (−1), one day prior to dosing. First dosing occurred in the morning of Day 1. Subjects were discharged from the CRU approximately 24 hours after dosing (Day 2). There was a one-week washout between doses and subjects returned to the CRU (Day 7) and were domiciled for two days. On the morning of Day 8, subjects received the opposite dosing state (from Day 1) and subjects were then discharged from the CRU approximately 24 hours after dosing (Day 9). Blood samples for plasma selection and bioanalysis were collected on the dosing days before dosing (baseline) and at 0.25, 1, 1.5, 2, 3, 4, 6, 9, 12, and 24 hr after dosing. The bioanalytical results were obtained following HPLC/MS/MS procedures. The limit of quantitation (LLOQ) for these methods was 30.3 picogram (pg)/mL. Plasma MN-221 concentrations were tabulated separately by subject and sampling time and summarized by descriptive statistics. Descriptive statistics included the sample size, mean, standard deviation, median, range, and the coefficient of variation (CV %). Mean plasma concentration-time profiles were illustrated graphically. All plasma concentrations below the limit of quantitation (BLQ) values occurring at predose and up to the first measurable concentration may otherwise be imputed as 1 pg/mL in some analyses or LLOQ. Pharmacokinetic parameters were calculated from individual plasma concentrations-time data by model-independent analysis methods using WinNonlin™. The following parameters were calculated: Cmax (observed maximum plasma concentration), tmax (observed time of maximum plasma concentration), t1/2 (terminal half-life calculated as ln(2)/λz), AUC0-24 (area under the plasma concentration-time curve calculated using the linear trapezoidal rule from time zero to time 24 hr), vss (volume of distribution at steady state), Cl (clearance), and Oral F % (% oral bioavailability). All pharmacokinetic parameters were summarized using descriptive statistics that included the sample size, mean, standard deviation, median, range, and coefficient of variation. Select t-test or non-parametric statistical analysis was optional.

[4] = both sexes, human, in vivo, iv, 300 ug, mean
[5] = both sexes, human, in vivo, iv, 300 ug, median
[6] = both sexes, human, in vivo, iv, 300 ug, range
[7] = both sexes, human, in vivo, po, 600 ug, mean
[8] = both sexes, human, in vivo, po, 600 ug, median
[9] = both sexes, human, in vivo, po, 600 ug, range
[10] = both, human, in vivo, po, 600 ug
[11] = female, human, in vivo, po, 600 ug
[12] = human one, in vivo, iv, 300 ug, individual subject
[13] = human two, in vivo, iv, 300 ug, individual subject

CN(C)C(=O)COc1ccc2c(c1)C[C@@H](NC[C@H](O)c1ccc(O)c(CCO)c1)CC2 [MN-221, bedoradrine sulfate]
bioavailability [1]: 39%
FEV1 increase as compared to baseline (average) ([2]; 300 microgram 1-hr i.v. infusion, p=NS): 9.2%
Mean changes in PEFR (L/sec) ([2]; 600 and 1200 μg i.v. groups, greatest during 1-3 hr post infusion): higher than the all placebo group
Mean changes in PEFR (% predicted) ([2]; 600 and 1200 μg i.v. groups, greatest in first 3-4 hr post-infusion): higher than the all placebo group
FEV1 increase as compared to baseline (average) ([2]; 600 microgram 1-hr i.v. infusion, p=0.020): 16.2%
FEV1 increase as compared to baseline (average) ([2]; 1200 microgram 1-hr i.v. infusion, p=0.0025): 21.5%
FEV1 (%, predicted) ([2]; MN-221 treated subjects, i.v. infusion): improved
tolerability ([2]; i.v. infusions 300-1200 μg, COPD patients): well tolerated
fold lower oral peak level than Cmax after i.v. dosing ([3]; 0.6 mg oral vs 0.3 mg i.v.): > 30 fold
AUC ([3]; both sexes, human, in vivo, iv, 0.3 mg): ~13 ng·h/mL
AUC(0-t) ([3]; both sexes, human, in vivo, iv, 300 ug, AUC 0-24 h, mean): 13.2 ng·h/mL
AUC(0-t) ([3]; both sexes, human, in vivo, iv, 300 ug, AUC 0-24 h, median): 14.1 ng·h/mL
AUC(0-t) ([3]; both sexes, human, in vivo, iv, 300 ug, AUC 0-24 h, range): 9.31 to 15.5 ng·h/mL
clearance [3, 4]: 322 mL/min
clearance [3, 5]: 307 mL/min
clearance [3, 6]: 252 to 425 mL/min
Cmax ([3]; both sexes, human, in vivo, iv, 300 ug, Cmax, mean): 10.7 ng/mL
Cmax ([3]; both sexes, human, in vivo, iv, 300 ug, Cmax, median): 12.2 ng/mL
Cmax ([3]; both sexes, human, in vivo, iv, 300 ug, Cmax, range): 6.76 to 14.8 ng/mL
Tmax [3, 4]: 0.25 h
Tmax [3, 5]: 0.25 h
Vd [3, 4]: 222 L
Vd [3, 5]: 206 L
Vd [3, 6]: 149 to 325 L
half-life [3, 4]: 12.2 h
half-life [3, 5]: 12.5 h
half-life [3, 6]: 7.4 to 14.6 h
AUC(0-t) ([3]; both sexes, human, in vivo, po, 600 ug, AUC 0-24 h, mean): 1.94 ng·h/mL
AUC(0-t) ([3]; both sexes, human, in vivo, po, 600 ug, AUC 0-24 h, median): 1.85 ng·h/mL
AUC(0-t) ([3]; both sexes, human, in vivo, po, 600 ug, AUC 0-24 h, range): 1.05 to 3.02 ng·h/mL
Cmax ([3]; both sexes, human, in vivo, po, 600 ug, Cmax, mean): 0.305 ng/mL
Cmax ([3]; both sexes, human, in vivo, po, 600 ug, Cmax, median): 0.301 ng/mL
Cmax ([3]; both sexes, human, in vivo, po, 600 ug, Cmax, range): 0.163 to 0.5 ng/mL
Tmax [3, 7]: 1.2 h
Tmax [3, 8]: 1.5 h
Tmax [3, 9]: 0.25 to 2 h
half-life [3, 7]: 16 h
half-life [3, 8]: 15.2 h
half-life [3, 9]: 11 to 23 h
fold lower AUC following oral dosing than at the i.v. dose ([3]; both, human, in vivo): about 7 fold
time at which plasma concentrations peaked ([3]; both, human, in vivo, iv): 0.25 h
time to reach maximal plasma concentrations ([3]; both, human, in vivo, po): ≤ 2 h
Tmax, median [3, 10]: approximately 1.5 hr
t½, mean [3, 10]: 16.1 h
AUC(0-t) ([3]; female, human, in vivo, iv, 300 ug, AUC0-24 h mean): 14.9 ng·h/mL
AUC(0-t) ([3]; female, human, in vivo, iv, 300 ug, AUC0-24 h range): 13.9 to 15.5 ng·h/mL
Cmax ([3]; female, human, in vivo, iv, 300 ug, Cmax mean): 13.1 ng/mL
Cmax ([3]; female, human, in vivo, iv, 300 ug, Cmax range): 12.1 to 14.8 ng/mL
oral F % mean [3, 11]: 4.9%
oral F % range [3, 11]: 3.4-6.1%
AUC(0-t) ([3]; female, human, in vivo, po, 600 ug, AUC0-24 h mean): 1.45 ng·h/mL
AUC(0-t) ([3]; female, human, in vivo, po, 600 ug, AUC0-24 h range): 1.05 to 1.79 ng·h/mL
Cmax ([3]; female, human, in vivo, po, 600 ug, Cmax mean): 0.221 ng/mL
Cmax ([3]; female, human, in vivo, po, 600 ug, Cmax range): 0.163 to 0.299 ng/mL
AUC(0-t) ([3]; human one, in vivo, iv, 300 ug, AUC 0-24 h, individual subject): 10.7 ng·h/mL
clearance [3, 12]: 423 mL/min
Cmax ([3]; human one, in vivo, iv, 300 ug, Cmax, individual subject): 6.76 ng/mL
Tmax [3, 12]: 0.25 h
AUC(0-t) ([3]; human one, in vivo, po, 600 ug, AUC 0-24 h, individual subject): 2.14 ng·h/mL
Tmax ([3]; human one, in vivo, po, 600 ug, individual subject): 1.5 h
AUC(0-t) ([3]; human two, in vivo, iv, 300 ug, AUC 0-24 h, individual subject): 15.5 ng·h/mL
clearance [3, 13]: 252 mL/min
Cmax ([3]; human two, in vivo, iv, 300 ug, Cmax, individual subject): 14.8 ng/mL
Tmax [3, 13]: 0.25 h
Vd [3, 13]: 225 L
half-life [3, 13]: 14.6 h
AUC(0-t) ([3]; human two, in vivo, po, 600 ug, AUC 0-24 h, individual subject): 1.05 ng·h/mL
Cmax ([3]; human two, in vivo, po, 600 ug, Cmax, individual subject): 0.163 ng/mL
oral F % in men relative to women ([3]; human, in vivo, po, 600 ug): two-fold greater
AUC(0-t) ([3]; male, human, in vivo, iv, 300 ug, AUC0-24 h mean): 11.5 ng·h/mL
AUC(0-t) ([3]; male, human, in vivo, iv, 300 ug, AUC0-24 h range): 9.31 to 14.3 ng·h/mL
Cmax ([3]; male, human, in vivo, iv, 300 ug, Cmax mean): 8.42 ng/mL
Cmax ([3]; male, human, in vivo, iv, 300 ug, Cmax range): 6.76 to 12.3 ng/mL
oral F % mean ([3]; male, human, in vivo, po, 600 ug): 11.1%
AUC(0-t) ([3]; male, human, in vivo, po, 600 ug, AUC0-24 h mean): 2.44 ng·h/mL
AUC(0-t) ([3]; male, human, in vivo, po, 600 ug, AUC0-24 h range): 1.91 to 3.02 ng·h/mL
Cmax ([3]; male, human, in vivo, po, 600 ug, Cmax mean): 0.389 ng/mL
Cmax ([3]; male, human, in vivo, po, 600 ug, Cmax range): 0.303 to 0.5 ng/mL

Reference: US20120295982A1, “TREATING HUMAN MALE COPD PATIENTS WITH ORAL BEDORADRINE” (MediciNova, Inc., priority 2011, published 2012)
